Experiments:
Experiment in all cases: relative viability (nuclei count vs DMSO), 5 days (fraction); higher = more cells survive
[1] = compound: C1/C(=C\C2=CC=CS2)/C(=O)/C(=C/C3=CC=CS3)/C1 + CC(C)C[C@H](NC(=O)[C@H](Cc1ccccc1)NC(=O)c1cnccn1)B(O)O [Bortezomib] (partner 0.002 µM)
Method in brief: (§1)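 Nuclei were stained with Hoechst during a one-step fixation (final 0.05% Triton X-100, 1% formaldehyde, 1 ug/ml Hoechst) carried out 5 days after dosing, then counted on 4× images. The cells, lung cancer lines in 1536-well plates, had been dosed by pin tool the day after seeding with one drug alone or a fixed anchor-drug dose plus five library-drug doses (not always all listed) in √10 steps. Relative viability is the nuclei count in treated wells divided by that in vehicle wells, and each value is the median of duplicate plates.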

[2] = compound: C1/C(=C\C2=CC=CS2)/C(=O)/C(=C/C3=CC=CS3)/C1 + CCNC(=O)c1noc(-c2cc(C(C)C)c(O)cc2O)c1-c1ccc(CN2CCOCC2)cc1 [Luminespib] (partner 0.01 µM)
Method in brief: as §1

[3] = compound: C1/C(=C\C2=CC=CS2)/C(=O)/C(=C/C3=CC=CS3)/C1 + CS(=O)(=O)N1CCN(Cc2cc3nc(-c4cccc5[nH]ncc45)nc(N4CCOCC4)c3s2)CC1 [Pictilisib] (partner 1 µM)
Method in brief: as §1

[4] = compound: C[C@]12O[C@H](C[C@]1(O)CO)n1c3ccccc3c3c4c(c5c6ccccc6n2c5c31)CNC4=O [Lestaurtinib] + CC(=O)Nc1cccc(-n2c(=O)n(C3CC3)c(=O)c3c(Nc4ccc(I)cc4F)n(C)c(=O)c(C)c32)c1 [Trametinib] (partner 0.02 µM)
Method in brief: as §1

Cell Line	relative viability ([1]; first compound 0.2 µM)	relative viability ([1]; first compound 0.6325 µM)	relative viability ([1]; first compound 2 µM)	relative viability ([1]; first compound 20 µM)	relative viability ([2]; first compound 0.2 µM)	relative viability ([2]; first compound 0.6325 µM)	relative viability ([2]; first compound 2 µM)	relative viability ([2]; first compound 6.325 µM)	relative viability ([2]; first compound 20 µM)	relative viability ([3]; first compound 0.2 µM)	relative viability ([3]; first compound 0.6325 µM)	relative viability ([3]; first compound 2 µM)	relative viability ([3]; first compound 20 µM)	relative viability ([4]; first compound 0.005 µM)	relative viability ([4]; first compound 0.01581 µM)	relative viability ([4]; first compound 0.05 µM)	relative viability ([4]; first compound 0.1581 µM)	relative viability ([4]; first compound 0.5 µM)	relative viability ([1]; first compound 6.325 µM)	relative viability ([3]; first compound 6.325 µM)
NCI-H1792	0.968	0.957	1.06	0.832	0.509	0.285	0.468	0.583	0.388	0.257	0.314	0.298	0.247	0.429	0.516	0.339	0.386	0.244		
NCI-H596	0.868	1.07	1.19		1.06	1.09	1.08	0.912	0.992	0.412	0.419	0.378	0.391	0.691	0.842	0.848	0.993	0.845	1.08	0.368
NCI-H2087	0.922	0.742	0.963	0.73	0.215	0.161	0.177	0.133	0.158	0.78	0.959	0.986	0.822	0.201	0.264	0.203	0.23	0.187	0.512	0.552
NCI-H661	0.857	0.716	0.858	0.732	0.942	0.964	0.934	0.843	0.929	0.398	0.524	0.525	0.398	0.609	0.633	0.508	0.607	0.321	0.738	0.373
EMC-BAC-2	1.16	1.08	1.19	1.02	1.23	1.23	1.19	1.09	1.12	0.61	0.548	0.545	0.505	0.926	0.905	0.973	0.748	0.415	0.967	0.48
NCI-H1355	1.21	1.2	1.21	1.14	0.71	0.7	0.733	0.687	0.662	0.519	0.401	0.411	0.474	0.481	0.435	0.359	0.318	0.285	1.1	0.391
NCI-H23	1.17	1.05	0.953	1.01	0.237	0.197	0.2	0.203	0.194	0.557	0.495	0.535	0.542	0.377	0.455	0.35	0.408	0.225	0.983	0.551
NCI-H1651	0.876	0.995	0.916	0.925	0.97	0.933	1.13	0.751	0.716	0.527	0.596	0.646	0.516	0.86	0.919	0.887	0.832	0.77	0.914	
NCI-H1975	0.435	0.421	0.361	0.367	0.313	0.163	0.194	0.312	0.177	0.314	0.265	0.328	0.265	0.344	0.33	0.348	0.262	0.209	0.334	0.26
COR-L23	1.12	0.983	0.978	1.01	0.583	0.692	0.577	0.721	0.544	0.765	0.827	0.922	0.892	0.755	0.652	0.272	0.317	0.0849	0.946	0.674
HCC-44	0.911	0.851	0.844	0.923	1.09	1.19	1.08	0.942	0.965	0.624	0.605	0.693	0.79	1.04	1.04	1.04	1.16	0.593	0.801	0.591
LOU-NH91	0.472	0.528	0.459	0.493	0.332	0.358	0.413	0.328	0.338	0.522	0.502	0.508	0.481	0.759	0.749	0.679	0.625	0.548	0.327	0.524
NCI-H441	0.617	0.516	0.351	0.482	0.331	0.377	0.343	0.37	0.345	0.523	0.418	0.541	0.523	0.458	0.441	0.346	0.389	0.34	0.447	0.489
NCI-H647	0.877	1.09	1.11	0.912	0.154	0.186	0.149	0.203	0.158	0.439	0.329	0.563	0.379	0.478	0.41	0.22	0.29	0.169	0.627	0.382
NCI-H1915	0.982	0.97	1.02	0.895	0.851	0.786	0.741	0.356	0.821	0.953	0.896	0.981	0.788	0.318	0.254	0.253	0.12	0.0799	0.908	0.839
NCI-H1734	1.03	0.953	0.906	0.881	0.193	0.19	0.209	0.22	0.211	0.466	0.447	0.487	0.501	0.788	0.788	0.712	0.478	0.267	0.805	0.44

Cell Line	relative viability ([1]; first compound 0.2 µM)	relative viability ([1]; first compound 0.6325 µM)	relative viability ([1]; first compound 2 µM)	relative viability ([1]; first compound 20 µM)	relative viability ([2]; first compound 0.2 µM)	relative viability ([2]; first compound 0.6325 µM)	relative viability ([2]; first compound 2 µM)	relative viability ([2]; first compound 6.325 µM)	relative viability ([2]; first compound 20 µM)	relative viability ([3]; first compound 0.2 µM)	relative viability ([3]; first compound 0.6325 µM)	relative viability ([3]; first compound 2 µM)	relative viability ([3]; first compound 20 µM)	relative viability ([4]; first compound 0.005 µM)	relative viability ([4]; first compound 0.01581 µM)	relative viability ([4]; first compound 0.05 µM)	relative viability ([4]; first compound 0.1581 µM)	relative viability ([4]; first compound 0.5 µM)	relative viability ([1]; first compound 6.325 µM)	relative viability ([3]; first compound 6.325 µM)
NCI-H1993	1.07	0.946	1.36	1.19	0.727	0.765	0.726	0.763	1.78	0.877	0.793	0.851	0.79	0.553	0.505	0.483	0.498	0.418	0.915	0.684
NCI-H2405	1.03	0.944	1.01	1	0.818	0.773	0.743	0.673	0.675	0.491	0.386	0.572	0.416	0.701	0.656	0.572	0.54	0.274	0.631	0.452
HOP-62	0.619	0.765	0.94	0.634	0.992	1.03	0.909	0.861	0.918	0.781	0.657	0.824	0.889	0.409	0.446	0.389	0.351	0.319	0.979	0.704
NCI-H650	0.974	0.849	0.961	0.768	0.901	0.701	0.826	0.735	0.944	0.998	0.801	0.834	0.938	0.88	1.03	0.886	0.522	0.34	1.02	0.821
BEN	0.719	1.04	1.01	0.719	0.477	0.403	0.476	0.344	0.253	0.551	0.628	0.612	0.491	1.23	1.43	0.998	0.709	0.553	0.68	0.519
SW 1573	0.985	1	1.09	0.949	0.25	0.192	0.194	0.161	0.181	0.54	0.523	0.551	0.512	0.712	0.672	0.491	0.367	0.144	0.834	0.377
ChaGo-K-1	0.998	0.934	0.967	0.517	0.62	0.652	0.45	0.295	0.22	0.653	0.699	0.756	0.538	0.899	1.02	0.704	0.773	0.645	0.559	0.487
NCI-H1755	1.01	0.897	1.03	0.928	0.51	0.402	0.642	0.341	0.274	0.475	0.436	0.435	0.386	0.766	0.774	0.731	0.571	0.407	0.853	0.353
NCI-H2023	0.964	0.942	1.21	0.868	0.864	0.642	0.735	0.515	0.677	0.282	0.254	0.241	0.23	0.557	0.712	0.599	0.354	0.132	0.869	0.214
LC-2-ad	1.03	1.05	1.02	1.02	1.2	1.14	1.12	1.04	0.961	0.464	0.525	0.482	0.425	0.932	1.02	0.792	0.569	0.505	0.871	0.51
NCI-H1666	0.724	0.67	0.643	0.666	1.09	1.01	1.02	0.49	1.04	0.587	0.281	0.408	0.309	0.898	0.892	0.882	0.88	0.781	0.559	0.273
201T	1.17	1.08	1.13	1.08	1.14	1.05	1.04	1.03	1.01	0.695	0.688	0.697	0.664	0.744	0.758	0.76	0.837	0.721	1.04	0.607
NCI-H2009	1.04	0.939	1.08	0.991	1.05	1.05	0.941	0.741	1.03	0.911	0.959	0.833	0.846	0.28	0.233	0.206	0.235	0.185	0.736	0.691
NCI-H2228	1.11	0.987	1.44	0.86	0.158	0.167	0.179	0.133	0.134	0.337	0.362	0.479	0.287	0.589	0.575	0.452	0.322	0.156	0.808	0.295
LU99A	1.21	1.13	1.26	0.941	0.245	0.201	0.268	0.224	0.281	0.345	0.403	0.303	0.353	0.55	0.522	0.439	0.231	0.145	0.668	0.276
NCI-H1437	0.544	0.503	0.479	0.479	1.26	1.23	1.06	0.95	1.09	0.437	0.402	0.406	0.36	0.569	0.684	0.56	0.691	0.603	0.495	0.404

Source: the supplement of paper PMC10307832
